The results in this text go back to patent US20230080054A1 (ILDONG PHARMACEUTICAL CO., LTD., priority 2021, published 2023).

This experiment deals with T1, human ANO6 (Homo sapiens, UniProt Q4KMQ2).
T1 construct: expressed in transfected cells
T1 sequence (Q4KMQ2 1-931 isoform Q4KMQ2-2): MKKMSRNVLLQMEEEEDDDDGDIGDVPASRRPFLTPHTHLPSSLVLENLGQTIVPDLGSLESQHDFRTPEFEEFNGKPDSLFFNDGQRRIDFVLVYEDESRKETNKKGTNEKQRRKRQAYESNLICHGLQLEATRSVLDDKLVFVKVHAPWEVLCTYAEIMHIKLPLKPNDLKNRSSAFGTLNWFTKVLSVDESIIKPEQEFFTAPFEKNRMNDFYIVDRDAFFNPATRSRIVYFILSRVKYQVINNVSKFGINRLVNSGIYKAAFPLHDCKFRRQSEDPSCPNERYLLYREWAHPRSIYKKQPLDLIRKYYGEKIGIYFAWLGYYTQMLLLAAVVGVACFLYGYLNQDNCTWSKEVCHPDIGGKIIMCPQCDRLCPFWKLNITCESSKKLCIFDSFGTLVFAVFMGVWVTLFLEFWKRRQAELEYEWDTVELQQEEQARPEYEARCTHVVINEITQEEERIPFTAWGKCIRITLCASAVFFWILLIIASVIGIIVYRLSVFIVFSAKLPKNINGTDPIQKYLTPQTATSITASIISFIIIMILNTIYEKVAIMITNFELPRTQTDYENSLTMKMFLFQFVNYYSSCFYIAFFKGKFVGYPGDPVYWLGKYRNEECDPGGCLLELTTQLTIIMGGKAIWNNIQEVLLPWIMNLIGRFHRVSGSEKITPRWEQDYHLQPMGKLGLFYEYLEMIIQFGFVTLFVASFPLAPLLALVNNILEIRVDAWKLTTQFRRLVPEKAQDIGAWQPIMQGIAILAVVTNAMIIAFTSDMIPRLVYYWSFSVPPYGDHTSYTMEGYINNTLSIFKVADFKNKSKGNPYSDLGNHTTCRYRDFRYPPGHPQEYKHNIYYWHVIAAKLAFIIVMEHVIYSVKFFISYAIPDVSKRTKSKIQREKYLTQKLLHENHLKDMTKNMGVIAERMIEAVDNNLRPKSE
Description: LACT C2 assay (phosphatidylserine scramblase function assay). The following applies: FRT cells expressing human ANO6, 10 μM ionomycin; for inhibition at 0.1 µM: test compound 100 nM, read-out: Inhibition Level 100 nM; for inhibition at 1 µM: test compound 1 μM, read-out: Inhibition Level 1 μM. The experiment is classed as cell-based. The text has this: Phosphatidylserine Scramblase Function Assay
1. Materials and Instruments
Ionomycin (Alomonelab, cat. #I-700), DAPI (Sigma-Aldrich, cat. #D8417), paraformaldehyde (Biosesang, cat. #P2031), Lionheart FX Automated Microscope (BioTek, Winooski), Python3 (Python Software Foundation), and OpenCV (Open Source Computer Vision Library).
Fisher rat thyroid (FRT) cells stably expressing human ANO6 (GenBank accession no. NP_001191732.1, provided by J. H. Nam, Dongguk University College of Medicine, Korea) were grown in DMEM/Ham's F-12 (1:1) medium with 10% FBS, 2 mM L-549 glutamine, 100 units/mL penicillin, and 100 μg/mL streptomycin at 37° C. and 5% CO2.
FRT cells stably expressing human ANO6 were plated in 96 well black-walled microplates at a density of 2×10^4 cells/well. After 24 hours incubation, cells were treated with the test compound (dissolved in DMSO) were treated to each well to become 1% v/v DMSO for 10 minutes, then 10 μM of ionomycin was applied. Finally each well was washed with 200 μL PBS after 10 minutes. After washout, the phosphatidylserine and nuclei were stained with PBS containing 500 nM Lactadherin-C2 (Lact-C2)-GFP, then cells were washed with 200 μL PBS. Cells were fixed with 4% paraformaldehyde for 5 minutes at room temperature. For morphological analysis, some cells were stained with fluorescently labelled DAPI for 15 minutes at room temperature. Quantitative analysis of the fluorescence intensity of Lact-C2-GFP was performed with Python3 and OpenCV. OpenCV was used to remove background and noise pixels, and the sum of all remaining pixel values was used to evaluate the fluorescence intensity of Lact-C2-GFP.
The inhibitory activity (%) of each of the test compounds was obtained by the following steps. In each row of 96 well plate, the inhibitory activity of each of the test compounds was calculated as percentages. The inhibitory activity of a negative control group to which neither compounds nor ionomycin were treated was set to be 100%, and the inhibitory activity of a positive control group to which ionomycin was treated and compounds were not treated was set to be 0%. The assay was performed in triplicate, and the results were averaged.

As usually defined, the inhibition is how much of the control response was suppressed. On to `Cc1cscc1-c1cnc(Nc2cccc(C(=O)Nc3cccc(F)c3)c2)nc1` [Compound 179, N-(3-fluorophenyl)-3-((5-(4-methylthiophen-3-yl)pyrimidin-2-yl)amino)benzamide], for which the inhibition at 0.1 µM is at least 60%.
As to `O=C(N[C@@H]1C[C@H]1c1ccccc1)c1cc(Nc2ncc(-c3ccccc3)cn2)ccn1` [Compound 167, N-((1R,2S)-2-phenylcyclopropyl)-4-((5-phenylpyrimidin-2-yl)amino)picolinamide], the inhibition at 0.1 µM was below 30%.
Consider `O=C(Nc1cccc(F)c1)c1cccc(NC2CCC(c3ccccc3)C2)c1` (stereo not shown) [Compound 187, N-(3-fluorophenyl)-3-((3-phenylcyclopentyl)amino)benzamide], for which the inhibition at 0.1 µM is below 30%.
The same measure, in the same setting: with `CNc1cccc(NC(=O)c2cccc(Nc3ncc(-c4cccc(F)c4)cn3)c2)c1` [Compound 177, 3-((5-(3-fluorophenyl)pyrimidin-2-yl)amino)-N-(3-(methylamino)phenyl)benzamide] the figure was below 30%; with `O=C(Nc1cccc(F)c1)c1cccc(NC2CCC(c3ccccc3)CC2)c1` (single isomer, unassigned) [Compound 188, N-(3-fluorophenyl)-3-((4-phenylcyclohexyl)amino)benzamide], below 30%.
Consider `O=C(NCc1ccc(F)c(C(F)(F)F)c1)c1cccc(Nc2ccc(-c3ccccc3)nn2)c1` [Compound 195, N-(4-fluoro-3-(trifluoromethyl)benzyl)-3-((6-phenylpyridazin-3-yl)amino)benzamide], for which the inhibition at 0.1 µM is below 30% and the inhibition at 1 µM was at least 60%.
The corresponding values for `O=C(NCCc1ccccc1C(=O)O)c1cccc(Nc2ncc(-c3cccc(F)c3)cn2)c1` [Compound 132, 2-(2-(3-((5-(3-fluorophenyl)pyrimidin-2-yl)amino)benzamido)ethyl)benzoic acid] are below 30% and below 30%.
For `COc1cc(F)ccc1CNC(=O)c1cccc(Nc2ccc(-c3cccc(F)c3)nn2)c1` [Compound 229, N-(4-fluoro-2-methoxybenzyl)-3-((6-(3-fluorophenyl)pyridazin-3-yl)amino)benzamide], in that order: below 30% and below 30%.
As to `O=C(Nc1ccc2c(c1)CCN2)c1cccc(Nc2ncc(-c3cccc(F)c3)cn2)c1` [Compound 181, 3-((5-(3-fluorophenyl)pyrimidin-2-yl)amino)-N-(indolin-5-yl)benzamide], the inhibition at 0.1 µM was below 30%.
Regarding `CN1CCC(CNC(=O)c2cccc(Nc3ccc(-c4cccc(F)c4)cn3)c2)C1` (stereo not shown) [Compound 145, 3-((5-(3-fluorophenyl)pyridin-2-yl)amino)-N-((1-methylpyrrolidin-3-yl)methyl)benzamide], the inhibition at 0.1 µM was below 30% and the inhibition at 1 µM is below 30%.
In the case of `O=C(O)c1cccc(CCNC(=O)c2cccc(Nc3ncc(-c4cccc(F)c4)cn3)c2)c1` [Compound 129, 3-(2-(3-((5-(3-fluorophenyl)pyrimidin-2-yl)amino)benzamido)ethyl)benzoic acid], the inhibition at 0.1 µM is below 30% and the inhibition at 1 µM was below 30%.
As for `O=C(N[C@@H]1C[C@H]1c1ccccc1)C12CCC(Nc3ccc(-c4ccccc4)nn3)(CC1)C2` [Compound 168, (1s,4s)-N-((1R,2S)-2-phenylcyclopropyl)-4-((6-phenylpyridazin-3-yl)amino)bicyclo[2.2.1]heptane-1-carboxamide], the inhibition at 0.1 µM is below 30%.
Take `Nc1ccccc1CCNC(=O)c1cccc(Nc2ncc(-c3cccc(F)c3)cn2)c1` [Compound 148, N-(2-aminophenethyl)-3-((5-(3-fluorophenyl)pyrimidin-2-yl)amino)benzamide]: the inhibition at 0.1 µM is below 30% and the inhibition at 1 µM was below 30%.
Turning to `O=C(Nc1cccc(F)c1)c1cccc(Nc2ncc(-c3cccc(F)c3)cn2)c1` [Compound A91], the inhibition at 0.1 µM is below 30% and the inhibition at 1 µM was at least 60%.
On to `Cc1ccc(NC(=O)c2cccc(Nc3ncc(-c4cccc(F)c4)cn3)c2)cc1C` [Compound A92], for which the inhibition at 0.1 µM is below 30% and the inhibition at 1 µM is at least 60%.
Take `O=C(NC1(c2ccccc2)CC1)c1cccc(Nc2ncc(-c3cccc(F)c3)cn2)c1` [Compound 133, 3-((5-(3-fluorophenyl)pyrimidin-2-yl)amino)-N-(1-phenylcyclopropyl)benzamide]: the inhibition at 0.1 µM is below 30% and the inhibition at 1 µM fell in the range of 30 to 60%.
For the compound `O=C(N[C@@H]1C[C@H]1c1ccccc1)c1cncc(Nc2ncc(-c3ccccc3)cn2)c1` [Compound 156, N-((1R,2S)-2-phenylcyclopropyl)-5-((5-phenylpyrimidin-2-yl)amino)nicotinamide], the inhibition at 0.1 µM was below 30% and the inhibition at 1 µM lay in the range of 30 to 60%.
Take `N#CC(NC(=O)c1cccc(Nc2ccc(-c3ccccc3)nn2)c1)c1ccc(F)cc1` (stereo not shown) [Compound 212, N-(cyano(4-fluorophenyl)methyl)-3-((6-phenylpyridazin-3-yl)amino)benzamide]: the inhibition at 0.1 µM is below 30% and the inhibition at 1 µM was below 30%.
In the case of `O=C(NCc1ccccc1Br)c1cccc(Nc2ncc(-c3cccc(F)c3)cn2)c1` [Compound 216, N-(2-bromobenzyl)-3-((5-(3-fluorophenyl)pyrimidin-2-yl)amino)benzamide], the inhibition at 0.1 µM is below 30% and the inhibition at 1 µM was below 30%.
Turning to `O=C(N[C@@H]1C[C@H]1c1ccc(Cl)c(F)c1)c1cccc(Nc2ccc(-c3ccccc3)nn2)c1` [Compound 221, N-((1R,2S)-2-(4-chloro-3-fluorophenyl)cyclopropyl)-3-((6-phenylpyridazin-3-yl)amino)benzamide], the inhibition at 0.1 µM lay within 30 to 60% and the inhibition at 1 µM was at least 60%.
For the compound `O=C(NCc1ccccc1C(F)(F)F)c1cccc(Nc2ncc(-c3cccc(F)c3)cn2)c1` [Compound 204, 3-((5-(3-fluorophenyl)pyrimidin-2-yl)amino)-N-(2-(trifluoromethyl)benzyl)benzamide], the inhibition at 0.1 µM is below 30% and the inhibition at 1 µM was in the range of 30 to 60%.
For `O=C(NCc1ccc(F)cc1F)c1cccc(Nc2ncc(-c3cccc(F)c3)cn2)c1` [Compound 215, N-(2,4-difluorobenzyl)-3-((5-(3-fluorophenyl)pyrimidin-2-yl)amino)benzamide], in that order: below 30% and below 30%.
Turning to `O=C(N[C@@H]1C[C@H]1c1ccc(Cl)c(F)c1)c1cccc(Nc2ncc(-c3cccc(F)c3)cn2)c1` [Compound 131, N-((1R,2S)-2-(4-chloro-3-fluorophenyl)cyclopropyl)-3-((5-(3-fluorophenyl)pyrimidin-2-yl)amino)benzamide], the inhibition at 0.1 µM is below 30% and the inhibition at 1 µM is at least 60%.
Regarding `O=C(N[C@@H]1C[C@H]1c1ccc(F)cc1)c1cccc(Nc2ccc(-c3ccccc3)nn2)c1` [Compound 199], the inhibition at 0.1 µM is at least 60% and the inhibition at 1 µM is at least 60%.
For `O=C(N[C@@H]1C[C@H]1c1ccc(F)c(F)c1)c1cccc(Nc2ccc(-c3ccccc3)nn2)c1` [Compound 234, N-((1R,2S)-2-(3,4-difluorophenyl)cyclopropyl)-3-((6-phenylpyridazin-3-yl)amino)benzamide], the inhibition at 0.1 µM lay in the range of 30 to 60% and the inhibition at 1 µM was at least 60%.
